This is an account of results in PubChem BioAssay AID2842 (Southern Research Institute, 2010).

The experiment concerns M. tuberculosis H37Rv growth inhibition. Briefly: Mycobacterium tuberculosis H37Rv growth inhibition, putative kinase inhibitor library, confirmatory dose response (AID 2842).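 Also: bacteria incubated one week before Alamar blue readout.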

≈ marks a conversion by molar mass, not a printed value. Bounds are passed on as bounds.

As a reminder, the IC90 is the concentration at which the effect reaches the 90% level. `O=C(Nc1ccc(F)cc1)Nc1nc(C(=O)N2CCN(c3ccc(F)cc3)CC2)cs1`: the IC90 was 7.09 µg/mL (≈ 16 µM). Under `Oc1ccc(Br)cc1C1CC(c2ccoc2)=NN1` (stereo unspecified) stands 25.3 µg/mL (≈ 82.4 µM); under `COc1cccc2sc(Nc3nc4ccc(Cl)cc4s3)nc12`, 13.9 µg/mL (≈ 40 µM).

`COc1ccc(-n2nnc3c(SCC(N)=O)ncnc32)cc1`: the IC90 was 5.67 µg/mL (≈ 17.9 µM). As for `COc1ccc(Nc2nc(Nc3cccc(OC)c3)nc3nccnc23)cc1`, the figure is 9.86 µg/mL (≈ 26.3 µM); as for `O=C(Nc1nnc(-c2ccco2)o1)c1cc(Cl)ccc1Cl`, 4.99 µg/mL (≈ 15.4 µM). On to `C=CCn1c(=NC(=O)c2ccc([N+](=O)[O-])s2)sc2cc(S(N)(=O)=O)ccc21`, for which the IC90 is under 0.2 µg/mL. As for `COc1ccc(Cn2cc(C(=O)c3ccc(C)cc3)c(=O)c3cc(OC)c(OC)cc32)cc1`, the figure is 7.05 µg/mL (≈ 15.9 µM); as for `COc1ccc(Nc2nc(N3CCN(Cc4ccccc4)CC3)nc3nccnc23)cc1`, 4.69 µg/mL (≈ 11 µM). As for `Cc1ccc2c(c1)NC(=O)c1cc(NS(=O)(=O)c3ccc4c(c3)OCCO4)ccc1O2`, the figure is 17.5 µg/mL (≈ 39.9 µM); as for `CC1CCCCN1S(=O)(=O)c1ccc(C(=O)Nc2nnc(-c3ccc(Br)cc3)o2)cc1` (stereo unspecified), 17.3 µg/mL (≈ 34.2 µM). In the case of `Cc1sc2nc(SCC#N)[nH]c(=O)c2c1C`, the IC90 is 17.3 µg/mL (≈ 69 µM). As to `CCc1ccc(-c2nnc3c4cc5c(cc4n(Cc4ccc(C)cc4)cc2-3)OCCO5)cc1`, the IC90 is 15.3 µg/mL (≈ 35 µM).

Turning to `CCOc1ccc2nc(N3CCCC3)sc2c1`, the IC90 was 17.2 µg/mL (≈ 69.3 µM). Under `Cc1cccc(C(=O)Nc2nnc(-c3cccnc3)o2)c1` stands 8.87 µg/mL (≈ 31.6 µM); under `COc1cccc(Cn2cc3c(-c4ccc(Cl)cc4)nnc-3c3cc(OC)c(OC)cc32)c1`, 15.2 µg/mL (≈ 33.1 µM). Under `O=C(Nc1nnc(C2=COCCO2)o1)c1ccc(Oc2ccccc2)cc1` stands 16.8 µg/mL (≈ 46 µM).

As to `O=C(Nc1nnc(-c2cc(Cl)ccc2Cl)o1)c1ccc(Cl)s1`, the IC90 is 1.86 µg/mL (≈ 4.96 µM). As for `Cc1ccc2[nH]c(=O)c(C3=NN(C(=O)c4ccco4)C(c4ccco4)C3)c(-c3ccccc3)c2c1` (stereo unspecified), the figure is 15.4 µg/mL (≈ 33.3 µM). Under `CC(C)N1CCc2c(sc(NC(=O)c3ccc(Oc4ccccc4)cc3)c2C(N)=O)C1` stands 12.5 µg/mL (≈ 28.7 µM). As for `COc1cccc2sc(Nc3nc4c(s3)C(=O)CC(C)(C)C4)nc12`, the figure is 7.52 µg/mL (≈ 20.9 µM); as for `Cc1ccc2sc(NNC(=O)c3nc4ccccc4s3)nc2c1C`, 3.31 µg/mL (≈ 9.34 µM); as for `CS(=O)(=O)c1ccc2nc(Nc3nc4ccc(Cl)cc4s3)sc2c1`, 9.7 µg/mL (≈ 24.5 µM). In the case of `Cc1nnc2ccc(-c3cccc(NC(=O)c4cccc(C(F)(F)F)c4)c3)nn12`, the IC90 was 22.6 µg/mL (≈ 56.7 µM).

Consider `COc1cccc(-c2csc(NC(=O)c3ccc4c(c3)OCCO4)n2)c1`, for which the IC90 is 14.3 µg/mL (≈ 39 µM). Turning to `CCOC(=O)N1CCc2c(sc(NC(C)=O)c2C(=O)OC)C1`, the IC90 is 14 µg/mL (≈ 43 µM). As for `O=C(Nc1nnc(-c2ccc3c(c2)CCCC3)o1)c1ccccc1`, the figure is 7.25 µg/mL (≈ 22.7 µM); as for `O=C(Cc1cccc2ccccc12)Nc1nnc(-c2ccc(F)cc2)o1`, 22.4 µg/mL (≈ 64.4 µM).

With `COc1cccc2sc(Nc3nc4ccccc4s3)nc12`, the 90% effect concentration (IC90) is 3.41 µg/mL (≈ 10.9 µM).

`O=C(Nc1nnc(-c2ccc3c(c2)CCCC3)o1)c1cc(Cl)sc1Cl`: the IC90 was 3.53 µg/mL (≈ 8.95 µM). Under `O=C(Cc1cccc2ccccc12)Nc1nnc(-c2cccs2)o1` stands 40.1 µg/mL (≈ 120 µM); under `O=C(Nc1nnc(-c2ccc(Cl)s2)o1)c1nc2ccccc2s1`, 4.81 µg/mL (≈ 13.3 µM); under `COc1ccc(-c2nnc(NC(=O)c3cc4ccccc4cc3OC)o2)cc1`, 26.3 µg/mL (≈ 70.2 µM). As for `O=C(Nc1nnc(C2=COCCO2)o1)c1ccc(-c2ccccc2)cc1`, the figure is 8.24 µg/mL (≈ 23.6 µM); as for `COc1ccc(-c2nc(NC(=O)c3cccc(C)c3)sc2C)cc1`, 5.78 µg/mL (≈ 17.1 µM); as for `CCOC(=O)c1c(NC(=O)CCl)sc2c1CCCC2`, 29.8 µg/mL (≈ 98.8 µM). As for `Fc1ccc2nc(Nc3nc(-c4ccc(Cl)s4)cs3)sc2c1`, the figure is 7.87 µg/mL (≈ 21.4 µM). In the case of `O=C(Nc1nnc(-c2ccc(Br)cc2)o1)C1COc2ccccc2O1` (stereo unspecified), the IC90 is 7.27 µg/mL (≈ 18.1 µM). As to `CCOc1cc(-c2nnc(NC(=O)c3cccs3)o2)cc(OCC)c1OCC`, the IC90 is 3.02 µg/mL (≈ 7.49 µM).

In the case of `O=C(CSc1n[nH]c(=O)[nH]c1=O)c1ccccc1`, the IC90 was 12.1 µg/mL (≈ 45.9 µM). In the case of `CC(C)(C)/C(O)=C(/C#N)c1nc2ccccc2[nH]1`, the IC90 was 16.6 µg/mL (≈ 68.6 µM).

`CC1CCc2nc(Nc3nc4cc5c(cc4s3)OCO5)sc2C1` (stereo unspecified): the IC90 is 14.4 µg/mL (≈ 41.8 µM).

In the case of `COc1ccc(CC2S/C(=N/N=C/c3ccccc3O)NC2=O)cc1` (stereo unspecified), the IC90 was under 0.2 µg/mL. With `CCOC(=O)N1CCc2c(sc(NC(=O)c3ccc(Oc4ccccc4)cc3)c2C(N)=O)C1`, the IC90 was 0.98 µg/mL (≈ 2.11 µM). Under `Oc1cc(OCc2ccccc2Cl)ccc1-c1[nH]ncc1-c1ccccc1` stands 7.69 µg/mL (≈ 20.4 µM); under `C=CCOC(=O)COc1ccc2c(C)c(-c3ccccc3)c(=O)oc2c1`, 0.85 µg/mL (≈ 2.43 µM).

`Cc1ccc(C)c(-c2nnc(NC(=O)C3CC3)o2)c1`: the IC90 is 1.46 µg/mL (≈ 5.67 µM).

In the case of `Cc1nc2ccc(NC(=O)Nc3cccc(Cl)c3)cc2s1`, the IC90 was 22.3 µg/mL (≈ 70.1 µM). For the compound `O=C(OCn1nnc2ccccc2c1=O)c1cccs1`, the IC90 was 4.31 µg/mL (≈ 15 µM). Regarding `O=C(Nc1nnc(-c2ccc3c(c2)CCCC3)o1)c1ccc([N+](=O)[O-])o1`, the IC90 is 10.6 µg/mL (≈ 29.9 µM). For the compound `O=C(Nc1ccc(S(=O)(=O)N2CCC(c3nc4ccccc4[nH]3)CC2)cc1)c1cccc(Cl)c1`, the IC90 was 0.86 µg/mL (≈ 1.74 µM). `CC(C)CCn1c(NCCc2ccccc2)nc2c1c(=O)n(C)c(=O)n2C`: the IC90 was 11 µg/mL (≈ 29.9 µM).

For `O=C(Nc1nnc(-c2ccco2)o1)c1cccs1`, the IC90 is 3.12 µg/mL (≈ 11.9 µM).

Take `O=C(Nc1nnc(-c2cc(Cl)ccc2Cl)o1)C1=COCCO1`: the IC90 is 25.7 µg/mL (≈ 75.2 µM). Consider `O=C(Cc1ccccc1)Nc1nnc(-c2ccc(Cl)cc2)o1`, for which the IC90 is 14.1 µg/mL (≈ 44.9 µM). Under `O=C(COc1ccc(Cl)cc1)NCCSc1ncc(-c2ccc(F)cc2)[nH]1` stands 10 µg/mL (≈ 24.6 µM). As for `O=C(Nc1nnc(-c2ccco2)o1)c1ccc([N+](=O)[O-])cc1`, the figure is 35.8 µg/mL (≈ 119 µM); as for `Cc1cccc(-c2nc(SCC(=O)Nc3ccc4c(c3)OCO4)c(-c3ccccc3)[nH]2)c1`, 9.98 µg/mL (≈ 22.5 µM); as for `N#Cc1c(NC(=O)c2cc(Cl)ccc2Cl)sc2c1CCN(Cc1ccccc1)C2`, 12.3 µg/mL (≈ 27.8 µM).

On to `O=C(c1ccco1)N(CCCn1ccnc1)c1nc2ccccc2s1`, for which the IC90 was 4.28 µg/mL (≈ 12.1 µM).

Regarding `COc1cc(OC)cc(C(=O)Nc2nnc(-c3cccc(SC)c3)o2)c1`, the IC90 was 12.4 µg/mL (≈ 33.5 µM).

Turning to `O=C(Nc1ncc(Cc2cccc(C(F)(F)F)c2)s1)c1cccs1`, the IC90 is 2.92 µg/mL (≈ 7.93 µM). Under `CC(O)CNc1ncnc2c1cnn2-c1ccc(Cl)c(Cl)c1` (stereo unspecified) stands 12.5 µg/mL (≈ 37 µM).

As to `CCCCC(=O)Nc1nnc(-c2ccc3c(c2)OCCO3)o1`, the IC90 is 9.06 µg/mL (≈ 29.9 µM). Under `COc1ccc(OC)c(Nc2nc(NCCN(C)C)nc3c2cnn3-c2ccccc2)c1` stands 7.29 µg/mL (≈ 16.8 µM); under `CCOc1cccc2sc(Nc3nc4ccc(OC)cc4s3)nc12`, 3.19 µg/mL (≈ 8.92 µM).

For `CC(=O)N1CCc2c(sc(NC(=O)c3ccc(C)cc3)c2C(N)=O)C1`, the IC90 is 8.93 µg/mL (≈ 25 µM). Under `CCOC(=O)CNC(=O)CSc1ncnc2c1nnn2-c1ccc(OC)cc1` stands 6.79 µg/mL (≈ 16.9 µM).

Take `Cc1ccc(-n2ncc3c(=O)n(CC(=O)Nc4ccc([N+](=O)[O-])cc4)cnc32)cc1`: the IC90 was 6.91 µg/mL (≈ 17.1 µM). Under `CC1CCCN(Cc2c(O)ccc3c(=O)c(-c4nc5ccccc5s4)c(N)oc23)C1` (stereo unspecified) stands 2.89 µg/mL (≈ 6.86 µM); under `COc1ccccc1Cn1cc2c(-c3ccc(F)cc3)nnc-2c2cc(C)ccc21`, 49.2 µg/mL (≈ 124 µM).
